Legend:
[1] = test system: pheromone glands; assay: de novo pheromone production by isolated pheromone glands in vitro (radiolabel incorporation); type: cell-based, Helicoverpa (Heliothis) armigera; conditions: for inhibition of Hez-PBAN-activated sex pheromone production: Hez-PBAN 0.05 μM, inhibitor in μM range, FIG. 3
Text: (§1) Two distinct assay systems were applied in order to determine the inhibition of PBAN-induced pheromone production, elicited by aryloxyphenoxy propionates and cyclohexandione oximes such as diclofop, diclofop-methyl and tralkoxydim. The first assay monitors de novo pheromone production by isolated pheromone glands in vitro according to the method of Rafaeli and Gileadi^7 (Experimental Section). The second assay, monitors sex pheromone production in vivo by decapitated female moths that are incapable of pheromone production unless stimulated by PBAN (Experimental section).
Intersegmental membranes (pheromone glands) between the eighth and ninth abdominal segments were removed from 2-3 day old virgin females. After 1 h preincubation in Pipes buffered incubation medium (pH 6.6), pheromone glands were dried on tissue paper and then transferred individually to 10 μl incubation medium containing 0.25 μCi [1-^14C]-acetate (56 mCi/mmole, NEN, Boston, USA) in the presence or absence of Hez-PBAN (Peninsula Labs, Belmont, Calif., USA) and in the additional presence or absence of either diclofop acid or diclofop methyl ester (FIG. 3).
Incubations were performed for 3 h at room temperature. In order to measure the incorporation of radiolabel from [1-^14C] sodium acetate, the glands were extracted in 200 μl hexane for 0.5 h at room temperature and a 100 μl aliquot of the upper hexane phase was measured in a β-counter. Relative levels of incorporation into the pheromone component were determined using HPLC analysis as reported previously^9 using a Vydac C18 reversed phase column and a linear gradient from 40-55% acetonitrile. Fractions were collected every minute and radioactivity determined. The radioactive elution profile (shown in FIG. 8) was compared to known elution times of standard palmitic acid, Z11-hexadecenol and the main pheromone product of H. armigera^10, Z11-hexadecenal (Sigma, USA). In some experiments [1-^14C]-acetyl CoA (Amersham Pharmacia Biotech, UK.) or [9, 10-^3H]-palmitic acid (Life Science Products, Inc, Texas, USA) were substituted for [1-^14C]-acetate in order to measure relative incorporation into pheromone from these precursors. The effect of palmitoyl CoA (Sigma) was also tested in a different set of experiments using [^14C]-acetate as precursor (as shown in FIG. 2).

[2] = test system: decapitated female moths; assay: sex pheromone production in vivo by decapitated female moths; parameters: species or system Helicoverpa (Heliothis) armigera; conditions: diclofop acid 10 μmol/female, PBAN 1 pmol/female, FIG. 7
Text: as §1
In vivo sex pheromone production by female moths was determined in 2-day old females. The females were decapitated during the photophase of day 1 and subsequently maintained for an additional 24 h, after which they were injected with either physiological saline (control) or 1 pmol/moth Hez-PBAN in saline, and in the additional presence or absence of diclofop acid. Ovipositor tips (containing pheromone glands) were removed 2 h after injection and extracted for 10 min in hexane, containing 25 ng tridecanyl acetate (Sigma, USA) as internal standard. […] Z11-hexadecenal was quantified using the internal standard quantification methods as described previously^9.

[3] = test system: ACCase enzyme; assay: Inhibition of ACCase (partially purified enzyme from pheromone glands); type: biochemical, Helicoverpa (Heliothis) armigera; conditions: in vitro, enzyme from pheromone producing tissue, FIG. 6
Text: The […] enzyme was extracted from pheromone glands separated on TMAE column and the eluted enzyme was used. Acetyl CoA was used as a substrate that requires HCO3^- where radiolabeled HCO3^- was used. In the presence of the enzyme, the substrate will be converted to radiolabeled malonyl CoA (see FIG. 1). Therefore, the difference in the level of incorporation of the radiolabeled malonyl CoA in the presence and absence of the […] enzyme was used to obtain the activity level of endogenous […] in the presence or absence of herbicides (FIG. 6).

[4] = test system: bees and beneficial insects; conditions: field conditions; cited from earlier work

In the case of `CCO/N=C(\CC)C1=C(O)CC(c2c(C)cc(C)cc2C)CC1=O` (centres unmarked) [tralkoxydim], the “concentration at which the inhibitory effect occurs” value ([1]; in vitro, Hez-PBAN 0.01 μM, FIG. 5) is reported as 100 µM.

In the case of `COC(=O)C(C)Oc1ccc(Oc2ccc(Cl)cc2Cl)cc1` (centres unmarked) [diclofop-methyl], the “inhibition of Hez-PBAN-activated sex pheromone production” value ([1]; in vitro) is reported as “significantly inhibits pheromone production to the same extent as the acid”.

In the case of `CCCCCCCCCCCCCCCC(=O)O` [palmitic acid], the “effect on the pheromonotropic action of PBAN” value ([1]; addition of palmitic acid, data not shown) is reported as “did not affect”.

With `CC(Oc1ccc(Oc2ccc(Cl)cc2Cl)cc1)C(=O)O` (centres unmarked) [diclofop acid] the “inhibition of Hez-PBAN-activated sex pheromone production” value ([1]; in vitro) was “significantly inhibits”, the “inhibition of in vivo synthesis of pheromone Z11-hexadecenal induced by PBAN” value [2] was “inhibited the production of the pheromone” and the “inhibition of partially purified ACCase enzyme activity” value [3] was “may inhibit directly”. The “toxicity to bees and beneficial insects” value [4] was “relatively non-toxic”.

In the case of `CCCCCCCCCCCCCCCC(=O)SCCNC(=O)CCNC(=O)[C@H](O)C(C)(C)COP(=O)(O)OP(=O)(O)OC[C@H]1O[C@@H](n2cnc3c(N)ncnc32)[C@H](O)[C@@H]1OP(=O)(O)O` [palmitoyl-CoA], the “effect on production of pheromone” value ([1]; in vitro, 0.01 μM Hez-PBAN, 14C-acetate, FIG. 2) is reported as “inhibiting its biosynthesis”.
